In patent US20090221715A1, “NOVEL POLYMORPH OF ATOVAQUONE” (priority 2008, published 2009):

Assay: Bulk density and tapped density comparison of atovaquone crystalline forms
Format: physicochemical
Conditions: powder of the crystalline form

Bulk density [g/mL]	Tapped density [g/mL]	Compound
0.2353	0.3801	O=C1C(O)=C([C@H]2CC[C@H](c3ccc(Cl)cc3)CC2)C(=O)c2ccccc21 [Form IPCA-ATO (ATO-8099), trans-2-[4-(4-chlorophenyl)cyclohexyl]-3-hydroxy-1,4-naphthoquinone]
0.2975	0.4010	O=C1C(O)=C([C@H]2CC[C@H](c3ccc(Cl)cc3)CC2)C(=O)c2ccccc21 [Form III (ATO-8110), trans-2-[4-(4-chlorophenyl)cyclohexyl]-3-hydroxy-1,4-naphthoquinone]
0.4802	0.6402	O=C1C(O)=C([C@H]2CC[C@H](c3ccc(Cl)cc3)CC2)C(=O)c2ccccc21 [Form I (ATO-8094P), trans-2-[4-(4-chlorophenyl)cyclohexyl]-3-hydroxy-1,4-naphthoquinone]
